For series [1] the following is noted: cited from earlier work.
For series [2], the system named is imidazoline-1 (I1) receptor. The following applies: cited from earlier work.
Series [3] has as its system mice. Description: Formalin Test, late phase (licking score). The class given is in vivo. Particulars: mouse, 5% formalin intraplantar, three doses p.o. 15 minutes before the test, 15-50 min after formalin. The text has this:
(§1) Common mouse models for pain include the Formalin Test (Wheeler-Aceto, et al., Psychopharmacology, 104, 35-44, 1991), the Hot Plate Test (Eddy and Leimbach, J. Pharmacol. Exp. Ther., 107, 385-393, 1953), and the Tail-flick Test (D'Amour and Smith, J. Pharmacol. Exp. Ther., 1, 74-79, 1941). These methods detect analgesic activity of compositions of interest. In the Formalin Test, mice are given an intraplantar injection of 5% formalin into one posterior hindpaw to induce paw licking. Test compositions are given to the mice before treatment with formalin and the mice are evaluated and compared to a control group. In the Hot Plate Test, mice are placed onto a hot metal plate maintained at 54° C. and the latency to the first foot-lick is measured. As with the Formalin test, compositions of interest are given to the mice before the test and the mice are evaluated and compared to a control group. In the Tail-flick Test, a mouse's tail is heated by means of a thermal light source, and the latency before the animal withdraws its tail is measured. […]
Mice were given an intraplantar injection of 5% formalin (25 μL) into one posterior hindpaw. […] Mice were briefly observed at one minute intervals between 15 and 50 minutes after the injection of formalin and the number of occasions that the mice were observed licking the injected paw was recorded. […]

The test system of series [4] is mice. Kind of series: Hot Plate Test. The series is classed as in vivo. The following applies: mouse, hot plate 54° C., 10, 30 and 100 mg/kg p.o. 15 minutes before the test.
Description: as §1
Mice were placed onto a hot metal plate maintained at 54° C. surrounded by a Plexiglas cylinder (height: 13 cm; diameter: 19 cm). The latency to the first foot-lick was measured (maximum: 30 seconds). […]
Data with the test substance were analyzed by comparing treated groups with vehicle control using ANOVA followed by post-hoc Dunnett's tests. […]
Background: Thermal pain tests record how soon the animal reacts.

In series [5] the test system is mice. Description: Tail-flick Test. The following applies: mouse, thermal light source, three doses (10, 30, 100) p.o. 15 minutes before the test. The series is classed as in vivo. The source says: Common mouse models for pain include the Formalin Test (Wheeler-Aceto, et al., Psychopharmacology, 104, 35-44, 1991), the Hot Plate Test (Eddy and Leimbach, J. Pharmacol. Exp. Ther., 107, 385-393, 1953), and the Tail-flick Test (D'Amour and Smith, J. Pharmacol. Exp. Ther., 1, 74-79, 1941). These methods detect analgesic activity of compositions of interest. In the Formalin Test, mice are given an intraplantar injection of 5% formalin into one posterior hindpaw to induce paw licking. Test compositions are given to the mice before treatment with formalin and the mice are evaluated and compared to a control group. In the Hot Plate Test, mice are placed onto a hot metal plate maintained at 54° C. and the latency to the first foot-lick is measured. As with the Formalin test, compositions of interest are given to the mice before the test and the mice are evaluated and compared to a control group. In the Tail-flick Test, a mouse's tail is heated by means of a thermal light source, and the latency before the animal withdraws its tail is measured. Test compositions are administered before the test, and compared with a vehicle control group. The analgesic activity of the compositions described herein can be identified using the mouse formalin, hot plate, and tail-flick tests.
A method for detecting analgesic activity followed that described by D'Amour and Smith (J. Pharmacol. Exp. Ther., 1, 74-79, 1941). The mouse's tail was heated by means of a thermal light source (20 volts). The latency before the animal withdraws its tail was measured (maximum: 15 seconds).
Ten mice were studied per group. The test was performed partially blind.
The test substances selected from (R)-isometheptene mucate, and (S)-isometheptene mucate were evaluated at three doses ([…]), administered p.o. 15 minutes before the test, and compared with a vehicle control group. […]
Data with the test substance were analyzed by comparing treated groups with vehicle control using ANOVA followed by post-hoc Dunnett's tests. Data with the reference substance were analyzed using unpaired Student's t tests.

Where [6] appears, read: compared with (S)-isometheptene.

Each structure is given as a SMILES string.

`CNC(C)CCC=C(C)C` (racemic) [Racemic isometheptene, reference compound]: in series [1] (in vivo), the “Heart rate and diastolic blood pressure” value is “increase”.
For the compound `CN[C@H](C)CCC=C(C)C` [(R)-isometheptene], in series [2], the “Binding affinity for the imidazoline-1 (I1) receptor” value is reported as “significant binding affinity”. Besides, the “I1 affinity relative to (S)-isometheptene” value in series [2] (setting [6]) is “higher affinity”. For the same compound, in series [1] (setting [6]), the “Potential adverse effects to the cardiovascular system relative to (S)-isometheptene” value is on record as “lower potential adverse effects”.
Consider `CN[C@@H](C)CCC=C(C)C` [(S)-isometheptene mucate], for which the “Licking score compared to vehicle” value in the series on mice [3] is reported as “reduction in licking score”. Moreover, the “Foot-licking latency compared to vehicle” value with mice [4] is listed as “longer foot-licking latency times”. In addition, in the series with mice [5], the “Tail flick latency compared to vehicle” value is “longer tail flick latency times”.

The values above are taken from patent US20150258197A1, “EUTECTIC ISOMETHEPTENE MUCATE” (TONIX PHARMA HOLDINGS LIMITED, priority 2014, published 2015).
